Measurements published in ChEMBL document CHEMBL6153078, “Design, synthesis, and biological evaluation of imidazolidinone derivatives as potent PPARα/δ agonists for the treatment of cholestatic liver diseases” (Eur J Med Chem, 2025).

Columns and labels:
Format in all cases: cell-based
[1] = molecular target: T1, Peroxisome proliferator-activated receptor alpha (Homo sapiens, UniProt Q07869); assay: Agonist activity at GAL4-fused human PPAR-alpha transfected in African green monkey COS7 cells assessed transcriptional activation incubated for 16 hrs by Luciferase assay
T1 sequence (Q07869 whole entry): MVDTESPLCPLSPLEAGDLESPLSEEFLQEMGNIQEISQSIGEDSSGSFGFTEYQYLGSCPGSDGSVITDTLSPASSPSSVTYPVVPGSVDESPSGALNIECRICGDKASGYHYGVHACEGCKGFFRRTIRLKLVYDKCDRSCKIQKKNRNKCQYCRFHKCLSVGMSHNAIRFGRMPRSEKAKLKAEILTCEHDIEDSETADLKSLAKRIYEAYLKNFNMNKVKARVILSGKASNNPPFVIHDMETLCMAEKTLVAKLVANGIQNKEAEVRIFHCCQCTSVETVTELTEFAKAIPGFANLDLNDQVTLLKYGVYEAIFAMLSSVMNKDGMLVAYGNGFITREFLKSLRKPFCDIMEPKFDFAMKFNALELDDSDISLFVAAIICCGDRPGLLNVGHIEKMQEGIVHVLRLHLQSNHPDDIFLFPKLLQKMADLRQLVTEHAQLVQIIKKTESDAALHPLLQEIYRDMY

[2] = molecular target: T2, Peroxisome proliferator-activated receptor gamma (Homo sapiens, UniProt P37231); assay: Agonist activity at GAL4-fused human PPAR-gamma transfected in African green monkey COS7 cells assessed transcriptional activation incubated for 16 hrs by Luciferase assay
T2 sequence (P37231 whole entry): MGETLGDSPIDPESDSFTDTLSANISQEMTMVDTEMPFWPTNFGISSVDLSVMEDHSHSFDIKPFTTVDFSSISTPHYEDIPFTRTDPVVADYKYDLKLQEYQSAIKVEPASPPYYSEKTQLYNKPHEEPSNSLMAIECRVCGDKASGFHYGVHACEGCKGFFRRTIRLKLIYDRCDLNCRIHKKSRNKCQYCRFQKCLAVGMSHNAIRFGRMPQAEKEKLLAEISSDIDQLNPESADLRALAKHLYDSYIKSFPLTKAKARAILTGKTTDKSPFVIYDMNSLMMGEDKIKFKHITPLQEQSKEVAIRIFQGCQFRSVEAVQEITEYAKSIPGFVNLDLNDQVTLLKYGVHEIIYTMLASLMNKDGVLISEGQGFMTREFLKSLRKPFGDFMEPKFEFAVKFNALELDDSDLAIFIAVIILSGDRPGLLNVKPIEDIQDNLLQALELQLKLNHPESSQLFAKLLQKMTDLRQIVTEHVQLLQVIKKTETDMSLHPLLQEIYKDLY

[3] = molecular target: T3, Peroxisome proliferator-activated receptor delta (Homo sapiens, UniProt Q03181); assay: Agonist activity at GAL4-fused human PPAR-delta transfected in African green monkey COS7 cells assessed transcriptional activation incubated for 16 hrs by Luciferase assay
T3 sequence (Q03181 whole entry): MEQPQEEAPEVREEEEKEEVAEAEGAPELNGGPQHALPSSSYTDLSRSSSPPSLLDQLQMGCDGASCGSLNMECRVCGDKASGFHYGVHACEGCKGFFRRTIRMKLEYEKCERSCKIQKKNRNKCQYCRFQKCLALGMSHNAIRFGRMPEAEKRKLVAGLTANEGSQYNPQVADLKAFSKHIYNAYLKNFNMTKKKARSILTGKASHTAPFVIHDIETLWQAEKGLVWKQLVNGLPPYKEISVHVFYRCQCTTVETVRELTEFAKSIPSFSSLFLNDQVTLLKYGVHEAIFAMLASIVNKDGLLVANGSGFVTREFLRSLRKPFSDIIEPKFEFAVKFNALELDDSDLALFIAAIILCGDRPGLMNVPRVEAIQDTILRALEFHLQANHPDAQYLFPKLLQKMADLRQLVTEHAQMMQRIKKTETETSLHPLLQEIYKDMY

Row | EC50 [1] | EC50 [2] | EC50 [3] | Compound
1 | 89.5 nM | 2130 nM | 39 nM | Cc1cc(CN2CCN(c3ccc(F)cc3)C2=O)cc(C)c1OC(C)(C)C(=O)O
2 | 14.2 nM | 884 nM | 40.9 nM | Cc1cc(CN2CCN(c3cccc(C(F)(F)F)c3)C2=O)cc(C)c1OC(C)(C)C(=O)O
3 | 7.3 nM | 1290 nM |  | CCc1ccc(N2CCN(Cc3cc(C)c(OC(C)(C)C(=O)O)c(C)c3)C2=O)cc1
4 |  | > 5000 nM |  | CC(C)(Oc1ccc(CN2CCN(c3ccc(C(F)(F)F)cc3)C2=O)cc1)C(=O)O
5 | 121 nM | 2580 nM | 263 nM | COc1ccc(N2CCN(Cc3cc(C)c(OC(C)(C)C(=O)O)c(C)c3)C2=O)cc1
6 | 1020 nM |  |  | Cc1cc(CN2CCN(c3ccc(Cl)cc3)C2=O)cc(C)c1OC(C)(C)C(=O)O
7 | > 5000 nM |  | > 5000 nM | Cc1cc(CN2CCN(c3ccccc3C(F)(F)F)C2=O)cc(C)c1OC(C)(C)C(=O)O
8 | 4.7 nM | 416 nM | 36.9 nM | Cc1cc(CN2CCN(c3ccc(OC(F)(F)F)cc3)C2=O)cc(C)c1OC(C)(C)C(=O)O
9 |  |  | 69.6 nM | Cc1cc(CN2CCN(c3ccc(C(C)C)cc3)C2=O)cc(C)c1OC(C)(C)C(=O)O
10 | 40.4 nM | 1200 nM |  | Cc1ccc(N2CCN(Cc3cc(C)c(OC(C)(C)C(=O)O)c(C)c3)C2=O)cc1
11 | 436 nM |  | 260 nM | Cc1cc(CN2CCN(c3ccccc3)C2=O)cc(C)c1OC(C)(C)C(=O)O
12 |  |  | > 5000 nM | Cc1cc(CN2CCN(c3ccc(C(C)(C)C)cc3)C2=O)cc(C)c1OC(C)(C)C(=O)O
13 | 175 nM | > 5000 nM |  | Cc1cc(CN2CCN(c3ccc(C(F)(F)F)cc3)C2=O)ccc1OC(C)(C)C(=O)O
14 | 888 nM | 1570 nM |  | CSc1ccc(C(=O)/C=C/c2cc(C)c(OC(C)(C)C(=O)O)c(C)c2)cc1 [ELAFIBRANOR]

Row | Compound | EC50 [1] | EC50 [2] | EC50 [3]
15 | Cc1cc(Cn2ncn(-c3ccc(OC(F)(F)F)cc3)c2=O)cc(C)c1OC(C)(C)C(=O)O | 8.5 nM |  | 
